Among the data in patent US20230066011A1, “PYRROLOPYRIMIDINE DERIVATIVE, AND PHARMACEUTICAL COMPOSITION FOR PREVENTING OR TREATING PROTEIN KINASE-RELATED DISEASE COMPRISING SAME AS ACTIVE INGREDIENT” (VORONOI CO., LTD., priority 2019, published 2023) are GI50, inhibition and remaining binding values, retold here.

The structures appear in SMILES notation.

For one assay, the system named is MDA-MB-231 cell line. The experiment in a line: Inhibition of proliferation of MDA-MB-231 cancer cells (Cell Titer-Glo). Format: cell-based. The note with it: Homo sapiens, 72 hours. A digest of the protocol:
(§1)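 Luminescence from Cell Titer-Glo (10 min, room temperature) gave GI50 after 72 h compound treatment. Final compound levels spanned 0.000169–10.000000 μM over 11 points, 3-fold steps; 2,000 cells/well grown in DMEM or RPMI.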

In the next assay the test system is human DYRK1A and tau. Put plainly: Inhibition of tau phosphorylation, ClariCELL Kinase Cell-Based Assay, HEK 293 cells expressing human DYRK1A and tau. The note with it: for inhibition at 1 µM: HEK293, read-out: % inhibition at 1 uM, tau phosphorylation, compound 1 uM; for inhibition at 0.25 µM / inhibition at 0.5 µM: HEK293, tau phosphorylation; for inhibition at 0.25 µM: compound 0.25 uM; for inhibition at 0.5 µM: compound 0.5 uM. A digest of the protocol: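 Cell-based service assay: HEK 293 cells transiently expressing human DYRK1A and tau were treated with compound and lysed. Released tau was plate-captured and its phosphorylation quantified by ELISA with a phospho-tau-specific antibody.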

For the next assay, the target named is T1, CLK4 (Homo sapiens, UniProt Q9HAZ1).
T1 construct: purchased DiscoverX Corp. (ScanMAX Kinase analysis panel, service)
Put plainly: ScanMAX Kinase analysis panel, CLK4. Format: binding. The note with it: 1 μM in DMSO; <35% considered inhibitory; read-out: percent control (% control), CLK4. Here is the method: (§2) Specifically, the enzyme (kinase) selectivity of Example compounds 238, 361, 411, 157, 161, 228, and 158 selected from the Example compounds of the present invention was determined by commissioning DiscoverX Corp., and an experiment was performed using a ScanMAX™ Kinase analysis panel. In this case, a concentration of the drug with which the enzymes were treated was 1 μM in DMSO, and the percent control (% control) was defined in the same manner as in the following Expression 1.
(§3) (Example Compound−Positive Control)/(Negative Control−Positive Control)×100 [Expression 1]
(§4) wherein the positive control represents a compound having a percent control of 0%, and the negative control represents DMSO having a percent control of 100%. For the enzyme selectivity of the present invention, it was considered that the compound has an inhibitory activity on each of the enzymes when the percent control for the corresponding enzyme was <35% (i. e., less than 35%).

A further assay deals with T2, TTK (Homo sapiens, UniProt P33981).
T2 sequence (P33981 1-857): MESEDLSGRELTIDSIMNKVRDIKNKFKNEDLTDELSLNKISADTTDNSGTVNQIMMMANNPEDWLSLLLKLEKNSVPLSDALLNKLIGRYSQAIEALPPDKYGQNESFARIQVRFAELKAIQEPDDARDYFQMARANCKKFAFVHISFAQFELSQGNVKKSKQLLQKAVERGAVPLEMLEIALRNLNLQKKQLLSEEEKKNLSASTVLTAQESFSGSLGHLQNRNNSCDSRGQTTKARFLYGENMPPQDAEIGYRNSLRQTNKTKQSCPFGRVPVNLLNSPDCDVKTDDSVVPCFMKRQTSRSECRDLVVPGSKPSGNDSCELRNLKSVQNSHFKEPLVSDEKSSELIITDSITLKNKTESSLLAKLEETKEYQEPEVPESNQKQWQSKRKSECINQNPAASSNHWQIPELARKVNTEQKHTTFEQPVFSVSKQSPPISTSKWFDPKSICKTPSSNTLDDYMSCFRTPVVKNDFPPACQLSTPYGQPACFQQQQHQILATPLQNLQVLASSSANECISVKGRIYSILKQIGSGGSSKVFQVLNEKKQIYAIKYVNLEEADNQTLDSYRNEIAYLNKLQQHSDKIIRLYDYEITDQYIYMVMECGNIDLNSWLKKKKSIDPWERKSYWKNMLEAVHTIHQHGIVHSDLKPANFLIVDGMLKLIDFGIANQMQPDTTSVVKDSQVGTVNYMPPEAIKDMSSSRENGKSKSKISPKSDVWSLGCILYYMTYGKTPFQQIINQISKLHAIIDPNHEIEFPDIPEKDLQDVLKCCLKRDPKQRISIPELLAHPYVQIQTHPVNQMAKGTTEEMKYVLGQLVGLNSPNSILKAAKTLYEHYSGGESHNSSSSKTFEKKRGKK
The experiment in a line: ScanMAX Kinase analysis panel, TTK. In kind it is binding. Also noted: purchased DiscoverX Corp. (commissioned ScanMAX panel service). The note with it: 1 μM in DMSO; <35% considered inhibitory; read-out: percent control (% control), TTK. The method, then:
as §2, §3, §4

Another assay relates to TNF-α. Put plainly: Inhibition of LPS-induced TNF-α secretion of THP-1 monocytes (ELISA). Format: cell-based, human. The note with it: Homo sapiens, THP-1; compound 0.5 μM, LPS 500 ng/mL, 24 hours; read-out: THP-1/TNF-α (% inhib). In short, it runs like this:
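THP-1 monocytes grown 16 h at 37 °C, pretreated 1 h with compound at final 0.5 μM, then stimulated with LPS at final 500 ng/mL for 24 h. IL-6 and TNF-α in culture supernatant measured by ELISA (OD 450 nm).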
(In general: An ELISA detects its analyte on a solid surface through an enzyme-linked reagent.)

In a further assay the test system is MDA-MB-468 cell line. The experiment in a line: Inhibition of proliferation of MDA-MB-468 cancer cells (Cell Titer-Glo). Format: cell-based. The note with it: Homo sapiens, MDA-MB-468, 72 hours. In short, it runs like this: as §1
A general note: ATP-based viability assays read luminescence as a measure of living cells.

T1 sequence (Q9HAZ1 whole entry): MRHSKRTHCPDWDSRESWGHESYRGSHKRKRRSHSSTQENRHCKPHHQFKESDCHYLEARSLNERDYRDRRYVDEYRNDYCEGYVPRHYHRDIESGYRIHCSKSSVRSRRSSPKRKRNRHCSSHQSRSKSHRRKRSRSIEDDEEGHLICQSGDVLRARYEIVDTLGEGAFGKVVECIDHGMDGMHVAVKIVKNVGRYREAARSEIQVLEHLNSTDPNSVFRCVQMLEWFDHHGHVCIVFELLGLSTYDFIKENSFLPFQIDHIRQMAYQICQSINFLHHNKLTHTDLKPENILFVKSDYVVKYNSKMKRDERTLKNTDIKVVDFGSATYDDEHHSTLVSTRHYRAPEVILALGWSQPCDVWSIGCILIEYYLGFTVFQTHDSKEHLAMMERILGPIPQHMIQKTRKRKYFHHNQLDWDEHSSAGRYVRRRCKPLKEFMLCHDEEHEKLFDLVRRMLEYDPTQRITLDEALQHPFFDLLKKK

As a reminder, the GI50 is the concentration that inhibits growth by half. `CCNc1nc(Nc2ccc(S(=O)(=O)N3CCC(N4CCOCC4)CC3)cc2OC)nc2[nH]cc(C(F)(F)F)c12` [Example 158, N^4-ethyl-N^2-(2-methoxy-4-((4-morpholinopiperidin-1-yl)sulfonyl)phenyl)-5-(trifluoromethyl)-7H-pyrrolo[2,3-d]pyrimidine-2,4-diamine 2,2,2-trifluoroacetate] displayed a concentration for 50% growth inhibition (GI50) in the assay with MDA-MB-231 cell line of 101 to 300 nM. Moreover, in the assay on human DYRK1A and tau, the inhibition at 1 µM was 66.8%, the inhibition at 0.25 µM was 25.4% and the inhibition at 0.5 µM stood at 59.7%. In addition, the remaining binding at 1 µM on CLK4 came to 0.3%. Moreover, the remaining binding at 1 µM at TTK was 2.6%.
Take `CNc1nc(Nc2ccc(P3(=O)CCN(C4CC4)CC3)cc2OC)nc2[nH]cc(C(F)(F)F)c12` [Example 411, 1-cyclopropyl-4-(3-methoxy-4-((4-(methylamino)-5-(trifluoromethyl)-7H-pyrrolo[2,3-d]pyrimidin-2-yl)amino)phenyl)-1,4-azaphosphinane-4-oxide]: in the assay on human DYRK1A and tau, the inhibition at 1 µM was 70.8%, the inhibition at 0.25 µM turned out to be 28.5% and the inhibition at 0.5 µM was 48.9%. The remaining binding at 1 µM at CLK4 was determined as 1.4%. For the same molecule, on TTK, the remaining binding at 1 µM amounted to 2.5%.
`CCCNc1nc(Nc2ccc(S(=O)(=O)N3CCC(N4CCOCC4)CC3)cc2OC)nc2[nH]cc(C(F)(F)F)c12` [Example 161, N^2-(2-methoxy-4-((4-morpholinopiperidin-1-yl)sulfonyl)phenyl)-N^4-propyl-5-(trifluoromethyl)-7H-pyrrolo[2,3-d]pyrimidine-2,4-diamine] gave a GI50 in the assay on MDA-MB-231 cell line of 301 to 1000 nM. Further, in the assay with human DYRK1A and tau, the inhibition at 1 µM came to 50%, the inhibition at 0.25 µM worked out at 0% and the inhibition at 0.5 µM worked out at 27.9%. Further, the remaining binding at 1 µM on CLK4 was determined as 0.65%. Further, the remaining binding at 1 µM at TTK was determined as 4.2%.
The molecule `CNc1nc(Nc2ccc(S(=O)(=O)N3CCC(N4CCOCC4)CC3)cc2OC)nc2[nH]cc(C(F)(F)F)c12` [Example 157, N^2-(2-methoxy-4-((4-morpholinopiperidin-1-yl)sulfonyl)phenyl)-N^4-methyl-5-(trifluoromethyl)-7H-pyrrolo[2,3-d]pyrimidine-2,4-diamine 2,2,2-trifluoroacetate] showed a GI50 in the assay on MDA-MB-231 cell line of 301 to 1000 nM. Besides, in the assay with TNF-α, the inhibition at 0.5 µM was 6.7%. In addition, in the assay on human DYRK1A and tau, the inhibition at 1 µM came out at 83.9%, the inhibition at 0.25 µM came to 41.2% and the inhibition at 0.5 µM was 71%. For the same molecule, on CLK4, the remaining binding at 1 µM was 0.55%. Besides, the remaining binding at 1 µM on TTK was 4%.
With `C=CCNc1nc(Nc2ccc(S(=O)(=O)N3CCC(N4CCOCC4)CC3)cc2OC)nc2[nH]cc(C#N)c12` [Example 361, 4-(allylamino)-2-((2-methoxy-4-((4-morpholino-piperidin-1-yl)sulfonyl)phenyl)amino)-7H-pyrrolo[2,3-d]pyrimidine-5-carbonitrile], in the assay with MDA-MB-468 cell line, the concentration for 50% growth inhibition (GI50) is less than 50 nM. Also, the inhibition at 0.5 µM in the assay on TNF-α amounted to 9.3%. Besides, the remaining binding at 1 µM was determined as 2.8% at CLK4 and 2.4% at TTK.
Take `O=C(c1ccc(Nc2nc(C3CC3)c3c(C(F)(F)F)c[nH]c3n2)c2c1OCCO2)N1CCC(N2CCOCC2)CC1` [Example 228, (8-((4-cyclopropyl-5-(trifluoromethyl)-7H-pyrrolo[2,3-d]pyrimidin-2-yl)amino)-2,3-dihydrobenzo[b][1,4]dioxin-5-yl)(4-morpholinopiperidin-1-yl)methanone]: the GI50 in the assay on MDA-MB-468 cell line was 301 to 1000 nM. In the assay with human DYRK1A and tau, the inhibition at 1 µM is 49%, the inhibition at 0.25 µM is 9.3% and the inhibition at 0.5 µM amounted to 24.7%. In addition, on CLK4, the remaining binding at 1 µM was 0.05%. Besides, the remaining binding at 1 µM on TTK stood at 2.9%.
